Experiments:
[1] = test system: TF-1 cells; assay: In-vitro bioassay in TF1 cell lines (proliferation, alamar Blue); settings: treated 48 h without rhGMCSF, normalized to cell control
[2] = test system: WI38 cells; settings: WI38 fibroblasts, mitogen-deprived medium (0.1% FBS), 48 h in presence of succinate
[3] = test system: TF-1 cells; settings: normalised to untreated cells (CC), triplicates
Procedure: For RNA-seq analysis, TF-1 cells were either treated with the positive control GMCSF (GM) or with succinate (E01). Untreated TF-1 cells (CC) were used as a control to determine basal gene expression. RNA-seq was performed in triplicates from all the three groups. The gene expression from E01 or GM group was normalised to the expression of CC.

[4] = test system: platelet counts; settings: rats, 100 mg/kg twice daily P.O. for 7 days, versus water control
Procedure: A preliminary study was conducted in rats using pure succinic acid (from commercial source). Six animals were used in each group (control and treated). The treated group received a dose of 100 mg/kg succinic acid twice daily P.O. whereas the control group received water of same volume as in treated twice daily. CBC (Complete Blood counts) was performed from the blood withdrawn from individual rats.

O=C([O-])CCC(=O)[O-].[Na+].[Na+] [Sodium Succinate]
cellular proliferation in TF-1 cells ([1]; listed as Na salt of succinic acid): showed proliferation activity

O=C([O-])CCC(=O)[O-].[Mg+2] [Mg salt of succinic acid]
cellular proliferation in TF-1 cells [1]: showed proliferation activity

O=C([O-])CCC(=O)[O-].[Ca+2] [Ca salt of succinic acid]
cellular proliferation in TF-1 cells [1]: showed proliferation activity

O=C(O)CCC(=O)O [succinate]
cell cycle entry from quiescence [2]: entered in the cell cycle even in the absence of mitogens
gene expression changes (RNA-seq) [3]: Several genes related to platelet differentiation pathway in succinate treated cells were identified

O=C(O)CCC(=O)O [succinic acid, Succinic acid]
platelet counts [4]: substantially increase the platelet counts
cellular proliferation in TF-1 cells [1]: dose dependent proliferation was observed

Source: patent US20210267923A1, “SUCCINIC ACID AND DERIVATIVES FOR THE TREATMENT OF HAEMOTOLOGICAL DISORDERS” (ENZENE BIOSCIENCES LIMITED, priority 2018, published 2021)
